Laboratory results published in PubChem BioAssay AID1259407 (Chemical Carcinogenesis Research Information System (CCRIS), 2018).
The source made the active and inactive calls. How the calls were made is not given here.

Test system: CCRIS mutagenicity, Ames/micronucleus/aberration tests
Assay: CCRIS mutagenicity studies
[1] = Test System: AMES SALMONELLA TYPHIMURIUM, Strain/Indicator: TA98, Metabolic Activation: NONE, Method: STANDARD PLATE
[2] = Test System: AMES SALMONELLA TYPHIMURIUM, Strain/Indicator: TA100, Metabolic Activation: NONE, Method: PREINCUBATION
[3] = Test System: AMES SALMONELLA TYPHIMURIUM, Strain/Indicator: TA100, Metabolic Activation: NONE, Method: STANDARD PLATE
[4] = Test System: AMES SALMONELLA TYPHIMURIUM, Strain/Indicator: TA98, Metabolic Activation: S-9, Method: STANDARD PLATE
[5] = Test System: AMES SALMONELLA TYPHIMURIUM, Strain/Indicator: TA100, Metabolic Activation: S-9, Method: STANDARD PLATE

Measured: mutagenic call

O=S(=O)(O)c1ccc(N=Nc2c(O)ccc3cc(S(=O)(=O)O)ccc23)cc1
inactive: End Point: IN VITRO CHROMOSOMAL ABERRATIONS, Test System: CHO CELLS, Metabolic Activation: NONE inactive; negative | End Point: IN VITRO CHROMOSOMAL ABERRATIONS, Test System: CHO CELLS, Metabolic Activation: RAT, LIVER, S-9, AROCLOR 1254 inactive; negative | Test System: AMES SALMONELLA TYPHIMURIUM, Strain/Indicator: TA97, Metabolic Activation: HAMSTER, LIVER, S-9, AROCLOR 1254 (10%), Method: PREINCUBATION inactive; negative | Test System: AMES SALMONELLA TYPHIMURIUM, Strain/Indicator: TA97, Metabolic Activation: HAMSTER, LIVER, S-9, AROCLOR 1254 (30%), Method: PREINCUBATION inactive; negative | Test System: AMES SALMONELLA TYPHIMURIUM, Strain/Indicator: TA97, Metabolic Activation: NONE, Method: PREINCUBATION inactive; negative | Test System: AMES SALMONELLA TYPHIMURIUM, Strain/Indicator: TA97, Metabolic Activation: RAT, LIVER, S-9, AROCLOR 1254 (10%), Method: PREINCUBATION inactive; negative | Test System: AMES SALMONELLA TYPHIMURIUM, Strain/Indicator: TA97, Metabolic Activation: RAT, LIVER, S-9, AROCLOR 1254 (30%), Method: PREINCUBATION inactive; negative | Test System: AMES SALMONELLA TYPHIMURIUM, Strain/Indicator: TA98, Metabolic Activation: HAMSTER, LIVER, S-9, AROCLOR 1254 (10%), Method: PREINCUBATION inactive; negative | Test System: AMES SALMONELLA TYPHIMURIUM, Strain/Indicator: TA98, Metabolic Activation: HAMSTER, LIVER, S-9, AROCLOR 1254 (30%), Method: PREINCUBATION inactive; negative | Test System: AMES SALMONELLA TYPHIMURIUM, Strain/Indicator: TA98, Metabolic Activation: NONE, Method: PREINCUBATION inactive; negative | [1] inactive; negative | Test System: AMES SALMONELLA TYPHIMURIUM, Strain/Indicator: TA98, Metabolic Activation: RAT LIVER S-9, AROCLOR 1254, Method: STANDARD PLATE inactive; negative | Test System: AMES SALMONELLA TYPHIMURIUM, Strain/Indicator: TA98, Metabolic Activation: RAT, LIVER, S-9, AROCLOR 1254 (10%), Method: PREINCUBATION inactive; negative | Test System: AMES SALMONELLA TYPHIMURIUM, Strain/Indicator: TA98, Metabolic Activation: RAT, LIVER, S-9, AROCLOR 1254 (30%), Method: PREINCUBATION inactive; negative | Test System: AMES SALMONELLA TYPHIMURIUM, Strain/Indicator: TA98, Metabolic Activation: RAT, LIVER, S-9, PHENOBARBITAL, Method: PREINCUBATION inactive; negative | Test System: AMES SALMONELLA TYPHIMURIUM, Strain/Indicator: TA100, Metabolic Activation: HAMSTER, LIVER, S-9, AROCLOR 1254 (10%), Method: PREINCUBATION inactive; negative | Test System: AMES SALMONELLA TYPHIMURIUM, Strain/Indicator: TA100, Metabolic Activation: HAMSTER, LIVER, S-9, AROCLOR 1254 (30%), Method: PREINCUBATION inactive; negative | [2] inactive; negative | [3] inactive; negative | Test System: AMES SALMONELLA TYPHIMURIUM, Strain/Indicator: TA100, Metabolic Activation: RAT LIVER S-9, AROCLOR 1254, Method: STANDARD PLATE inactive; negative | Test System: AMES SALMONELLA TYPHIMURIUM, Strain/Indicator: TA100, Metabolic Activation: RAT, LIVER, S-9, AROCLOR 1254 (10%), Method: PREINCUBATION inactive; negative | Test System: AMES SALMONELLA TYPHIMURIUM, Strain/Indicator: TA100, Metabolic Activation: RAT, LIVER, S-9, AROCLOR 1254 (30%), Method: PREINCUBATION inactive; negative | Test System: AMES SALMONELLA TYPHIMURIUM, Strain/Indicator: TA100, Metabolic Activation: RAT, LIVER, S-9, PHENOBARBITAL, Method: PREINCUBATION inactive; negative | Test System: AMES SALMONELLA TYPHIMURIUM, Strain/Indicator: TA1535, Metabolic Activation: HAMSTER, LIVER, S-9, AROCLOR 1254 (10%), Method: PREINCUBATION inactive; negative | Test System: AMES SALMONELLA TYPHIMURIUM, Strain/Indicator: TA1535, Metabolic Activation: HAMSTER, LIVER, S-9, AROCLOR 1254 (30%), Method: PREINCUBATION inactive; negative | Test System: AMES SALMONELLA TYPHIMURIUM, Strain/Indicator: TA1535, Metabolic Activation: NONE, Method: PREINCUBATION inactive; negative | Test System: AMES SALMONELLA TYPHIMURIUM, Strain/Indicator: TA1535, Metabolic Activation: RAT, LIVER, S-9, AROCLOR 1254 (10%), Method: PREINCUBATION inactive; negative | Test System: AMES SALMONELLA TYPHIMURIUM, Strain/Indicator: TA1535, Metabolic Activation: RAT, LIVER, S-9, AROCLOR 1254 (30%), Method: PREINCUBATION inactive; negative

Cc1cc2cccc3ccc4cc5ccccc5c1c4c32
active: Test System: AMES SALMONELLA TYPHIMURIUM, Strain/Indicator: TA100, Metabolic Activation: RAT, INTACT HEPATOCYTES, AROCLOR 1254, Method: PREINCUBATION active; positive | Test System: AMES SALMONELLA TYPHIMURIUM, Strain/Indicator: TA100, Metabolic Activation: RAT, NADPH-FORTIFIED HOMOGENIZED HEPATOCYTES, AROCLOR 1254, Method: PREINCUBATION active; positive

CCCOS(=O)(=O)c1ccc(C)cc1
active: [3] active; positive | Test System: AMES SALMONELLA TYPHIMURIUM, Strain/Indicator: TA100, Metabolic Activation: RAT, LIVER, S-9, Method: STANDARD PLATE active; positive
inactive: End Point: IN VITRO MICRONUCLEUS, Test System: MOUSE LYMPHOMA L5178Y CELLS, Metabolic Activation: NONE inactive; negative; positive results only at highly excessively cytotoxic doses | End Point: IN VITRO MICRONUCLEUS, Test System: MOUSE LYMPHOMA L5178Y CELLS, Metabolic Activation: RAT, LIVER, S-9 inactive; negative | End Point: In vitro micronucleus, Test System: Chinese Hamster Ovary (CHO-WBL) cells, Metabolic Activation: None inactive; negative

C[C@]12CC[C@@H]3c4ccc(O)cc4C[C@@H](CCCCCCCCCS(=O)CCCC(F)(F)C(F)(F)F)[C@H]3[C@@H]1CC[C@@H]2O (stereo partly specified)
active: Test System: CHINESE HAMSTER V-79, Strain/Indicator: V-79 (HPRT)/6-THIOGUANINE, Metabolic Activation: NONE, Method: SUSPENSION/PLATE active; positive

CC(C)(c1ccc(OP(O)O)cc1)c1ccc(OP(O)O)cc1
inactive: Test System: AMES SALMONELLA TYPHIMURIUM, Strain/Indicator: TA97, Metabolic Activation: NONE, Method: STANDARD PLATE inactive; negative | Test System: AMES SALMONELLA TYPHIMURIUM, Strain/Indicator: TA97, Metabolic Activation: S-9, Method: STANDARD PLATE inactive; negative | [1] inactive; negative | [4] inactive; negative | [3] inactive; negative | [5] inactive; negative | Test System: AMES SALMONELLA TYPHIMURIUM, Strain/Indicator: TA102, Metabolic Activation: NONE, Method: STANDARD PLATE inactive; negative | Test System: AMES SALMONELLA TYPHIMURIUM, Strain/Indicator: TA102, Metabolic Activation: S-9, Method: STANDARD PLATE inactive; negative | Test System: E.COLI, Strain/Indicator: WP2 (PKM101), Metabolic Activation: NONE, Method: STANDARD PLATE inactive; negative | Test System: E.COLI, Strain/Indicator: WP2 (PKM101), Metabolic Activation: S-9, Method: STANDARD PLATE inactive; negative

Nc1ccc(Oc2ccc(Cl)cc2Cl)cc1
active: [4] active; positive | [5] active; positive | Test System: AMES SALMONELLA TYPHIMURIUM, Strain/Indicator: YG1021, Metabolic Activation: S-9, Method: STANDARD PLATE active; positive | Test System: AMES SALMONELLA TYPHIMURIUM, Strain/Indicator: YG1024, Metabolic Activation: S-9, Method: STANDARD PLATE active; positive | Test System: AMES SALMONELLA TYPHIMURIUM, Strain/Indicator: YG1026, Metabolic Activation: S-9, Method: STANDARD PLATE active; positive | Test System: AMES SALMONELLA TYPHIMURIUM, Strain/Indicator: YG1029, Metabolic Activation: S-9, Method: STANDARD PLATE active; positive

Cc1ccc(S(=O)(=O)OC[C@@H]2CO2)cc1
active: [2] active; positive | [3] active; positive | Test System: AMES SALMONELLA TYPHIMURIUM, Strain/Indicator: TA100, Metabolic Activation: RAT, LIVER, S-9, PCB, Method: PREINCUBATION active; positive

O=C(NO)OCc1ccccc1
active: Test System: E. COLI, Strain/Indicator: WP2 UVRA, Metabolic Activation: NONE, Method: FLUCTUATION TEST active; positive
